Test results as given in patent US5399790A, “Non-steroid and non-prostanoid inhibitors of steroid and prostaglandin transforming enzymes” (Trustees of The University of Pennsylvania, priority 1993, dated 1995).
“Also recorded” adds a separate entry of the source.

What was measured:
[1] = molecular target: T1, 3α-HSD (Rattus norvegicus, UniProt P23457); assay: time dependent inactivation of purified 3α-HSD; type: biochemical; details: for return of enzyme activity after inactivation: gel filtration or extensive dialysis of the inactivated enzyme; for inactivation of 3α-HSD: result in words
T1 construct: the purified 3α-HSD of rat liver cytosol; from tissue; host or cells: rat liver (cytosol)
T1 sequence (P23457 1-322): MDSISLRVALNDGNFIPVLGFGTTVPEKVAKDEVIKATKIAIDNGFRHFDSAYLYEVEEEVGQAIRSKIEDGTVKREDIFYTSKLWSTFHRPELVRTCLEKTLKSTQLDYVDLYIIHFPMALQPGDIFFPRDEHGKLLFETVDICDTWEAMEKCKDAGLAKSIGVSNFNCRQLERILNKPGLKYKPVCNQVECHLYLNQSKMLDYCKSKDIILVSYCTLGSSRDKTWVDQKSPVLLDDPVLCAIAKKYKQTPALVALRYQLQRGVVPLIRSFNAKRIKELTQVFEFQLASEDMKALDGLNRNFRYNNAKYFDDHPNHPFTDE
Description: 3α-HSD (24 μM of purified enzyme) was incubated in systems (30 μl) containing 1.2 mM NAD^+, 10 mM potassium phosphate buffer pH 7.0, 1 mM EDTA and 5% acetonitrile as a co-solvent. Enzyme activity was followed over time by diluting an aliquot of the incubation mixture into a 1 ml assay containing: 2.3 mM NAD^+ and 75 μM androsterone in 0.1M potassium phosphate buffer pH 7.0, with 4% acetonitrile as a co-solvent. Initial rates were determined spectrophotometrically by measuring the rate of NADH formation at 340 nm. Because of the 100 fold or greater dilution of the enzyme into the assay, the initial rate measured is an indication of the enzyme activity remaining at that time. Semi-log plots of the amount of enzyme remaining vs. time are curvilinear (panel a). Initial rates of inactivation (kapp's) were estimated by taking tangents to these curves. Data was replotted as 1/kapp vs 1/allylic alcohol from which kinact (the rate constant for enzyme inactivation) and Ki (the binding constant of the allylic alcohol) were determined, (panel b).
Inactivation of 3α-HSD (24 μM) was conducted in incubations (60 μl) of 10 mM potassium phosphate buffer pH 7.0 containing 1 mM EDTA and 4% acetonitrile as a co-solvent. After the initial enzyme activity was determined (see the legend of FIG. 2 for assay composition), the concentration of inactivator indicated (.cndot.=0 μM, .circle.=2.1 μM, =4.9 μM, .gradient.=10.0 μM, =15.0 μM, []24.0 μM) was added and the sample incubated at 25° C. Over time, samples were withdrawn and diluted into the standard assay to determine the amount of enzyme activity remaining. A secondary plot of the amount of enzyme inactivated vs. the amount of inhibitor added provided the stoichiometry of inactivation when corrected for nonspecific loss of enzyme activity (panel b). The continuous line without points is a theoretical line for a stoichiometry of 1:1.

[2] = tested on: 3α-HSD and 3(17)β-HSD (Pseudomonas testosteroni), 3α,20α-HSD (Streptomyces hydrogenase), 20α-HSD (rat ovary), 3β-HSD (rat liver), alcohol dehydrogenase …; assay: broad screen of the alcohols as suicide substrates of dehydrogenases; type: biochemical; details: eight dehydrogenases screened
Description: A broad screen was conducted in which the allylic (I) and acetylenic alcohols (II) were examined as suicide substrates of the following enzymes: 3α-HSD and 3(17)β-HSD (Pseudomonas testosteroni), 3α,20α-HSD (Streptomyces hydrogenase), 20α-HSD (rat ovary), 3β-HSD (rat liver), alcohol dehydrogenase (yeast), lactate dehydrogenase (porcine heart) and 3α-HSD (rat liver).

[3] = molecular target: T1, 3α-HSD; assay: chromatography of inactivated 3α-HSD on the immobilized nucleotide analog Cibacron Blue; type: binding
From the text: (§1) Three types of experimental evidence indicate that both the enone (III) and the acetylenic ketone (IV) alkylate the pyridine nucleotide binding domain in preference to the steroid binding site of the enzyme. […] Third, chromatographic experiments using the immobilized nucleotide analog Cibacron Blue indicate that both native enzyme and enzyme inactivated with the steroid affinity alkylator, 17β-bromoacetoxy-5α-androstan-17β-ol-3-one, bind tightly to the immobilized nucleotide analog. By contrast, enzyme inactivated by either (III) or (IV) has no affinity for the immobilized nucleotide analogue. This experimental evidence implies that the alkylators (III) and (IV) covalently modify the nucleotide binding domain of 3α-HSD.

[4] = molecular target: T1, 3α-HSD; assay: steady state kinetic measurements and protection from inactivation of 3α-HSD; type: biochemical; details: for type of inhibition versus NAD+ binding / type of inhibition versus androsterone binding: steady state kinetic measurements
From the text: as §1

[5] = molecular target: T2, cyclooxygenase (Ovis aries, UniProt P05979); assay: time dependent inactivation of semi-purified cyclooxygenase (oxygen consumption); type: biochemical, sheep; details: for inactivation of cyclooxygenase / prostaglandin synthases: result in words
T2 construct: cyclooxygenase obtained from sheep seminal vesicle microsomes; from tissue; host or cells: sheep seminal vesicle microsomes
T2 sequence (P05979 25-600): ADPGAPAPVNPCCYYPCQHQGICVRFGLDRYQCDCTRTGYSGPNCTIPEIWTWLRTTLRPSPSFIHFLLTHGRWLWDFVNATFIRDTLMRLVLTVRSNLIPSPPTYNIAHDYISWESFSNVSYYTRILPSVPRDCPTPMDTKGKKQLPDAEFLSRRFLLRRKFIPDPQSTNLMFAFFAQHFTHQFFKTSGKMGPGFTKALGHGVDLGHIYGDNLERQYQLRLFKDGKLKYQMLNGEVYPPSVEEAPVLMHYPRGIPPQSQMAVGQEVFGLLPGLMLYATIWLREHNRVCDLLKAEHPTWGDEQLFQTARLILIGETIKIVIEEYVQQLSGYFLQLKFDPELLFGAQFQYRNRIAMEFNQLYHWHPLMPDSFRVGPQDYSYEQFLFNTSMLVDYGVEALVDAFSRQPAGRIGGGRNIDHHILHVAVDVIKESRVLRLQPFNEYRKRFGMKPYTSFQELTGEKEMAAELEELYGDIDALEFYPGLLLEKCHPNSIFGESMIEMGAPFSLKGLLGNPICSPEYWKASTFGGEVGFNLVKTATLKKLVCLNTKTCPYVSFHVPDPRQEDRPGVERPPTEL
Description: Semi-purified cyclooxygenase (480 μg) was pre-incubated in 100 μl systems containing the inhibitor concentrations indicated, along with 50 mM Tris-HCl (pH=7.2), 100 μM EDTA, 1 mM phenol, 1 μM hematin, 1% Tween, and 10% DMSO. At the time intervals shown, 5 μl aliquots were removed and diluted into a 600 μl assay system containing 100 mM potassium phosphate (pH=7.2), 1 mM phenol, and 100 μM arachidonic acid. The rate of oxygen consumption was then measured. The maximum rate of oxygen uptake observed in these assays was 1.875 μmoles of oxygen consumed per minute per milligram protein.

[6] = substrate: C#CC(O)c1ccc([N+](=O)[O-])cc1; assay: enzymatic oxidation of the allylic and acetylenic alcohols by 3α-HSD in the presence of NAD+; type: biochemical, rat; details: other: oxidation by 3α-HSD in the presence of NAD+; pH 7.0; 25.0 °C
[7] = substrate: C=CC(O)c1ccc([N+](=O)[O-])cc1; assay: as above; type: biochemical, rat; details: other: oxidation by 3α-HSD in the presence of NAD+; pH 7.0; 25.0 °C

## C=CC(O)c1ccc([N+](=O)[O-])cc1 (stereo not drawn) [I, 1-(4'-nitrophenyl)-2-propen-1-ol]
[1]; at a saturating allylic alcohol concentration
  t1/2 life for the enzyme: 8 s
[1]; comparison of the rate of oxidation with that of enzyme inactivation
  molecules of the allylic alcohol oxidized for every molecule of enzyme inactivated: ≤ 10 molecules
[1]; estimated, theoretical limit 1
  partition ratio kcat/kinact: 5.3
[1]
  return of enzyme activity after inactivation: enzyme activity does not return
  inactivation of 3α-HSD: highly selective mechanism-based inactivators; also recorded: time-dependent loss of 3α-HSD activity
[1]; method of Kitz and Wilson, in the presence of NAD+
  Ki: 1200 µM
[2]
  selectivity as suicide substrate among the screened enzymes: only rat liver 3α-HSD effectively oxidized the alcohols

## C=CC(=O)c1ccc([N+](=O)[O-])cc1 [III, 1-(4'-nitrophenyl)-2-propen-1-one]
[1]
  inactivation of 3α-HSD: stoichiometric inactivators; also recorded: too fast to accurately measure; also recorded: rapid and stoichiometric
[3]
  binding of the inactivated enzyme to the immobilized nucleotide analog: no affinity
[4]
  protection of 3α-HSD from inactivation by NAD+: complete protection
  protection of 3α-HSD from inactivation by androsterone and other compounds competitive for the steroid binding site: slow the rate of inactivation but do not completely block this event
  type of inhibition versus NAD+ binding: competitive inhibitors
  type of inhibition versus androsterone binding: non-competitive or mixed inhibitors
[5]
  inactivation of cyclooxygenase / prostaglandin synthases: irreversibly inactivate prostaglandin synthases in a time dependent manner
[5]; listed as iii
  inactivation of cyclooxygenase / prostaglandin synthases: time and concentration dependent inactivation
[5]; semi-purified cyclooxygenase from sheep seminal vesicle microsomes
  t1/2 life at saturation: 60 to 120 s
[5]; semi-purified cyclooxygenase from sheep seminal vesicle microsomes, read-out: concentration required to inactivate 50% of the enzyme activity
  IC50: 837 µM

## C#CC(O)c1ccc([N+](=O)[O-])cc1 (stereo not drawn) [II, 1-(4'-nitrophenyl)-2-propyn-1-ol]
[1]
  return of enzyme activity after inactivation: enzyme activity does not return
  inactivation of 3α-HSD: highly selective mechanism-based inactivators
[2]
  selectivity as suicide substrate among the screened enzymes: only rat liver 3α-HSD effectively oxidized the alcohols

## C[C@]12CCC(=O)C[C@@H]1CC[C@@H]1[C@@H]2CC[C@]2(C)[C@@H](OC(=O)CBr)CC[C@@H]12 [17β-bromoacetoxy-5α-androstan-17β-ol-3-one, reference compound]
[3]
  binding of the inactivated enzyme to the immobilized nucleotide analog: bind tightly

## C#CC(=O)c1ccc([N+](=O)[O-])cc1 [IV, 1-(4'-nitrophenyl)-2-propyn-1-one]
[1]
  inactivation of 3α-HSD: stoichiometric inactivators; also recorded: rapid and stoichiometric
[3]
  binding of the inactivated enzyme to the immobilized nucleotide analog: no affinity
[4]
  protection of 3α-HSD from inactivation by NAD+: complete protection
  protection of 3α-HSD from inactivation by androsterone and other compounds competitive for the steroid binding site: slow the rate of inactivation but do not completely block this event
  type of inhibition versus NAD+ binding: competitive inhibitors
  type of inhibition versus androsterone binding: non-competitive or mixed inhibitors
[5]
  inactivation of cyclooxygenase / prostaglandin synthases: irreversibly inactivate prostaglandin synthases in a time dependent manner
[5]; listed as iv
  inactivation of cyclooxygenase / prostaglandin synthases: time and concentration dependent inactivation

## CC(=O)Oc1ccccc1C(=O)O [acetyl salicylate, reference compound]
[5]; 100 μM, over 20 hours
  cyclooxygenase inactivated: 50%

B1: 3α-HSD (Rattus norvegicus) (protein)
chain: MDSISLRVALNDGNFIPVLGFGTTVPEKVAKDEVIKATKIAIDNGFRHFDSAYLYEVEEEVGQAIRSKIEDGTVKREDIFYTSKLWSTFHRPELVRTCLEKTLKSTQLDYVDLYIIHFPMALQPGDIFFPRDEHGKLLFETVDICDTWEAMEKCKDAGLAKSIGVSNFNCRQLERILNKPGLKYKPVCNQVECHLYLNQSKMLDYCKSKDIILVSYCTLGSSRDKTWVDQKSPVLLDDPVLCAIAKKYKQTPALVALRYQLQRGVVPLIRSFNAKRIKELTQVFEFQLASEDMKALDGLNRNFRYNNAKYFDDHPNHPFTDE
notes: the purified 3α-HSD of rat liver cytosol; from tissue; host or cells: rat liver (cytosol)
[6]
  Vmax: 0.3 µmol/min/mg
[7]
  Km: 2020 µM
  Vmax: 0.58 µmol/min/mg
